Holding throughout (format): in vivo, Hyline-98 leghorn hens
In test [1] the test system is anti-PLA2 antibody titer in egg yolk. Kind of test: Egg yolk anti-PLA2 antibody titer by ELISA, second trial: indomethacin or aspirin in feed for 24 h before antigen. The following applies: for anti-PLA2 antibody titer in eggs vs control hens / presence of anti-PLA2 antibodies in eggs: FIG. 2, 50 mg indomethacin/kg diet or 1 g aspirin/kg diet for 24 h before PLA2 injection; for anti-PLA2 antibody titer in eggs vs control hens: 35 and 42 days after exposure; for presence of anti-PLA2 antibodies in eggs: 21 days after exposure. As for the experimental part:
(§1) Eggs were cracked and the yolks and albumin were separated. The antibodies were extracted by a 1:10 dilution of yolk in acidified PBS (pH 5.0) for twelve hours. Antibody titer was assayed by enzyme-linked immunosorbent assay (ELISA) at twenty-eight, thirty-five and forty-two days after exposure to the antigen. Optical density was measured at 450 nm using an HRP enzyme reaction to detect antibody. A standard on each plate was defined as a “positive reaction,” which is defined as twice the optical density of an egg yolk diluted 1:2000 from a hen not immunized against the antigen.
In a second set of trials, the hens were divided at 300 days of age into three treatment groups. For twenty-four hours after the groups were established, a control group (n=6) was fed standard breeder's mash, a first test group (n=6) was fed standard breeder's mash supplemented with 50 mg of indomethacin/kg diet, and a second test group (n=6) was fed standard breeder's mash supplemented with 1 g aspirin/kg diet. After twenty-four hours, the three groups were injected at the four sites with 1 ml total of 3 mg PLA2/ml of CFA and PBS in a 50/50 mixture. Booster injections were given as described above.
Antibody titer was determined as in the first trial at twenty-one, twenty-eight, thirty-five and forty-two days after exposure to the antigen.
(ELISA stands for enzyme-linked immunosorbent assay.)

The test system is the same in test [2]. Kind of test: Egg yolk anti-PLA2 antibody titer by ELISA, third trial: indomethacin or aspirin in feed from day 14 after antigen. To be noted: FIG. 3, inhibitor in feed from day 14 after PLA2 injection; for presence of anti-PLA2 antibodies in eggs: 21 days after exposure. As for the experimental part: as §1
In a third set of experiments, the hens were divided at 245 days of age into three treatment groups. On day one, the three groups were injected at the four sites with 1 ml total of 3 mg PLA2/ml of CFA and PBS in a 50/50 mixture. A control group (n=8) was fed standard breeder's mash for the entire trial. Starting on day fourteen after exposure to the antigen, a first test group (n=8) was fed standard breeder's mash supplemented with 50 mg of indomethacin/kg diet and a second test group (n=8) was fed standard breeder's mash supplemented with 1 g aspirin/kg diet.
Antibody titer was determined as in the first two trials at twenty-one, twenty-eight and sixty-three days after the injection of PLA2.

Test [3] shares this test system. Kind of test: Egg yolk anti-PLA2 antibody titer by ELISA, first trial: COX inhibitor in feed for 24 h before antigen. The following applies: 50 mg indomethacin/kg diet for 24 h before PLA2 injection. As for the experimental part: Hyline-98 leghorn hens were randomly assigned to treatment groups and given free access to standard breeder's mash and water. In a first set of trials, the hens were divided at 245 days of age into two treatment groups. For twenty four hours after the groups were established, a control group (n=6) was fed standard breeder's mash and a test group (n=6) was fed standard breeder's mash supplemented with 50 mg of indomethacin/ kg diet. After twenty four hours, both groups were injected intramuscularly (i.m.) at four sites (each breast muscle and each leg muscle) with 1 ml total of 3 mg PLA2/ml of complete Freund's adjuvant (CFA; Sigma, St. Louis, Mo.) and phosphate buffered saline (PBS) in a 50/50 mixture. Hens were given an i.m. booster injection over the four sites seven days after initial injection with 1 ml total of a 3 mg PLA2/ml of incomplete Freund's adjuvant (IFA; Sigma) and PBS in a 50/50 mixture.
as §1

On to `CC(=O)Oc1ccccc1C(=O)O` [aspirin], for which the “anti-PLA2 antibody titer of eggs relative to eggs from control hens” value in test [1] (1 g aspirin/kg diet for 24 h before PLA2 injection, 42 days after exposure) was “nearly three times”. Besides, the “effectiveness at increasing antibody titer, aspirin compared with indomethacin” value in test [1] (1 g aspirin/kg diet vs 50 mg indomethacin/kg diet for 24 h before PLA2 injection) was “more effective”. Besides, in test [1], the “anti-PLA2 antibody titer in eggs vs control hens” value is “significantly increased”. For the same compound, the “presence of anti-PLA2 antibodies in eggs” value in test [1] is listed as “had anti-PLA2 antibodies”; in test [2], “contained anti-PLA2 antibodies”. Further, the “anti-PLA2 antibody titer in eggs compared to control” value in test [2] (21 and 28 days after exposure) is listed as “not significantly different”; in test [2] (63 days after exposure) it was “control group had a higher antibody titer”.
In the case of `COc1ccc2c(c1)c(CC(=O)O)c(C)n2C(=O)c1ccc(Cl)cc1` [indomethacin], in test [3] (42 days after exposure), the “anti-PLA2 antibody titer of eggs relative to eggs from control hens” value is “nearly triple”. For the same compound, the “anti-PLA2 antibody titer in eggs vs control hens” value in test [3] (FIG. 1, 28, 35 and 42 days after exposure) is given as “significantly increased”; in test [1], “significantly increased”. For the same compound, the “presence of antigen-specific anti-PLA2 antibodies in eggs” value in test [3] (FIG. 1, by 28 days after exposure) was “contained antigen-specific anti-PLA2 antibodies”. In addition, the “presence of anti-PLA2 antibodies in eggs” value in test [1] is given as “had anti-PLA2 antibodies”; in test [2], “contained anti-PLA2 antibodies”. The “anti-PLA2 antibody titer in eggs compared to control” value in test [2] (21 and 28 days after exposure) is reported as “not significantly different”; in test [2] (63 days after exposure), “control group had a higher antibody titer”.

For the origin of these results see patent publication US20070231320A1, “Eggs having increased antibody titer and methods for making same” (priority 2006, published 2007).
